# Several values for one entry are separate records, joined by “and”; a condition that tells them apart may be missing. Equal values may be shown once. Where a name gives a salt, the structure may show the parent alone.
# How the values were obtained:
# [1] = tested on: Staphylococcus aureus MW2 delta-mecA (mecA-); test: IC50 (growth, competition assay); details: cefoxitin: subinhibitory
# In short: (§1)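 Pre-induced, 1:1-mixed fluorescent S. aureus MW2 mecA+ and ΔmecA strains were grown 20 h at 37 °C, 90% humidity, unshaken, in LB with a daily-set subinhibitory cefoxitin dose, in 1536-well plates. Compounds were given on five- or nine-point 2-fold gradients, in two dye-swapped replicates. DsRed (540/590) and GFP (485/520) were scaled per plate between single-strain control medians, with No Treatment then set to 0.5. Per-strain IC50 was the dose halving the No Treatment signal, or the maximal signal.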
# [2] = tested on: Staphylococcus aureus MW2 (mecA+); test: IC50 (growth, competition assay); details: cefoxitin: subinhibitory
# In short: as §1
SMILES,IC50 ([1]; fluorescent label: DsRed),IC50 ([1]; fluorescent label: GFP) [µM],IC50 ([2]; fluorescent label: DsRed),IC50 ([2]; fluorescent label: GFP)
NCc1ccccc1CC(=O)N[C@@H]1C(=O)N2C(C(=O)O)=C(CSc3nnnn3CC(=O)O)CS[C@H]12 [PRECEF],< 9.85 µM,< 9.85,53.1 µM,44.7 µM
CCn1cc(C(=O)O)c(=O)c2cc(F)c(N3CCNCC3)cc21 [Norfloxacin (Norxacin)],< 0.498 µM,< 0.498,0.816 µM,0.772 µM
CC1(C)S[C@@H]2[C@H](NC(=O)[C@H](N)c3ccc(O)cc3)C(=O)N2[C@H]1C(=O)O [AMOXIL],< 9.85 µM,< 9.85,135 µM,106 µM
CNCc1ccc(C)c(NC(=O)c2ccc(Nc3nc(-c4ccccc4)c4ccccc4n3)cc2)c1,< 9.85 µM,< 9.85,15.9 µM,14.5 µM
C=CCc1ccc(O)c(-c2cc(CC=C)ccc2O)c1 [Magnolol],12 µM,8.24,40.1 µM,49.9 µM
Cn1sc(=O)n(Cc2ccccc2)c1=O [TDZD-8],< 9.85 µM,< 9.85,< 9.85 µM,< 9.85 µM
O=C1C=C2C(=CCOC2O)O1 (stereo not drawn) [PATULIN],< 9.85 µM,< 9.85,18.9 µM,26.9 µM
CC1CCc2cc(F)cc3c(=O)c(C(=O)O)cn1c23 (stereo not drawn) [Flumequine],< 9.85 µM,< 9.85,< 9.85 µM,< 9.85 µM
NS(=O)(=O)c1ccc(-n2nc(C(F)(F)F)cc2-c2ccc(Cl)cc2)cc1 [SC-236],26.4 µM,16.3,94.1 µM,97.3 µM
CS(=O)(=O)c1ccc([C@@H](O)[C@@H](CF)NC(=O)C(Cl)Cl)cc1 [NUFLOR],< 9.85 µM,< 9.85,< 9.85 µM,< 9.85 µM
Cc1ccc(Sc2ccccc2N2CCNCC2)c(C)c1,< 9.85 µM,14.3,43.5 µM,54.2 µM
CCOC(=O)C1=C(C)NC(C)=C(C(=O)OC)C1c1cccc(Cl)c1Cl (stereo not drawn) [Felodipine (Plendil)],7.13 µM,6.89,22.6 µM,31.8 µM
CCN(CC)CCOc1ccc(Nc2ncc3cc(-c4c(Cl)cccc4Cl)c(=O)n(C)c3n2)cc1,30.6 µM,36.5,85.1 µM,106 µM
Cn1cncc1[C@@](N)(c1ccc(Cl)cc1)c1ccc2c(c1)c(-c1cccc(Cl)c1)cc(=O)n2C [Tipifarnib (Zarnestra)],< 9.85 µM,11.3,29.6 µM,15.1 µM
CC[C@H]1OC(=O)[C@H](C)[C@@H](O[C@H]2C[C@@](C)(OC)[C@@H](O)[C@H](C)O2)[C@H](C)[C@@H](O[C@@H]2O[C@H](C)C[C@H](N(C)C)[C@H]2O)[C@](C)(O)C[C@@H](C)/C(=N\OCOCCOC)[C@H](C)[C@@H](O)[C@]1(C)O [Roxithromycin (Roxl-150)],< 0.498 µM,< 0.498,4.26 µM,3.99 µM
C/C(=C\C(=O)Nc1ccccc1C(=O)O)c1ccc2ccccc2c1 [BIBR1532],< 9.85 µM,< 9.85,< 9.85 µM,12.3 µM
Cc1cc2nc3c(=O)[nH]c(=O)nc-3n(C[C@H](O)[C@H](O)[C@H](O)CO)c2cc1C [FLAVAXIN],> 150 µM,> 150,> 150 µM,> 150 µM
CCc1ccc(/C=C2/SC(=S)NC2=O)cc1,< 9.85 µM,< 9.85,< 9.85 µM,< 9.85 µM
CN(C)C(=O)C(CCN1CCC(O)(c2ccc(Cl)cc2)CC1)(c1ccccc1)c1ccccc1 [Loperamide hydrochloride],31.4 µM,39,103 µM,109 µM
Cc1coc2c1C(=O)C(=O)c1c-2ccc2c1CCCC2(C)C [Tanshinone IIA (Tanshinone B)],3.7 µM and 13.9 µM,–,7.87 µM and 35.3 µM,41.1 µM and 32.8 µM
CCCCCCNC(=O)n1cc(F)c(=O)[nH]c1=O [Carmofur],< 9.85 µM,< 9.85,< 9.85 µM,< 9.85 µM
C[C@@H](NCCCc1cccc(C(F)(F)F)c1)c1cccc2ccccc12 [AMG-073 HCl (Cinacalcet hydrochloride)],13.4 µM,< 9.85,48.8 µM,54.9 µM
CC[C@H]1OC(=O)[C@H](C)C(=O)[C@H](C)[C@@H](O[C@@H]2O[C@H](C)C[C@H](N(C)C)[C@H]2O)[C@](C)(OC)C[C@@H](C)C(=O)[C@H](C)[C@H]2N(CCCCn3cnc(-c4cccnc4)c3)C(=O)O[C@]12C [KETEK],< 9.85 µM,< 9.85,< 9.85 µM,< 9.85 µM
O=C1OC(CN2CCOCC2)CN1/N=C/c1ccc([N+](=O)[O-])o1 (stereo not drawn) [FURALTADONE],11.4 µM,18.5,17.8 µM,15.1 µM
CN1CCN(C2Cc3ccccc3Sc3ccc(Cl)cc32)CC1 (stereo not drawn) [(?)-Octoclothepin maleate],< 9.85 µM,29.3,73.8 µM,61.8 µM
N[C@@H](C(=O)N[C@@H]1C(=O)N2C(C(=O)O)=C(Cl)CS[C@H]12)c1ccccc1 [Cefaclor],< 9.85 µM,< 9.85,< 9.85 µM,< 9.85 µM

# Source: the supplement of paper PMC7695840
